≈ marks a conversion by molar mass, not a printed value. Calls of active or inactive are those of the source. The rule behind the calls is not given here.
What was measured:
[1] = test system: Candida parapsilosis; assay: Antifungal activity against Candida parapsilosis ATCC 22019 after 24 hrs; format: functional; settings: ATCC 22019, 24 h
[2] = Selectivity index, ratio of IC50 for african green monkey Vero cells to IC50 for Candida krusei ATCC 6258; format: toxicity, cell-based; settings: read-out: Ratio IC50
[3] = test system: Pichia kudriavzevii; assay: Antifungal activity against Candida krusei ATCC 6258 after 24 hrs; format: functional; settings: ATCC 6258, 24 h
[4] = test system: Trichophyton rubrum; assay: Antifungal activity against Trichophyton rubrum ATCC 28188 after 6 days; format: functional; settings: ATCC 28188, 144 h
[5] = test system: Trichophyton mentagrophytes; assay: Antifungal activity against Trichophyton mentagrophytes ATCC 24198 after 6 days; format: functional; settings: ATCC 24198, 144 h
[6] = test system: Candida tropicalis; assay: Antifungal activity against Candida tropicalis CECT 11901 after 24 hrs; settings: CECT 11901, 24 h
[7] = test system: Aspergillus fumigatus; assay: Antifungal activity against Aspergillus fumigatus ATCC 204305 after 48 hrs; format: functional; settings: ATCC 204305, 48 h
[8] = test system: Candida albicans; assay: Antifungal activity against Candida albicans ATCC 10231 after 24 hrs; format: functional; settings: ATCC 10231, 24 h
[9] = test system: Aspergillus niger; assay: Antifungal activity against Aspergillus niger ATCC 16404 after 48 hrs; format: functional; settings: ATCC 16404, 48 h
[10] = test system: Aspergillus flavus; assay: Antifungal activity against Aspergillus flavus ATCC 204304 after 48 hrs; format: functional; settings: ATCC 204304, 48 h
[11] = test system: Aspergillus terreus; assay: Antifungal activity against Aspergillus terreus CDC 317 after 48 hrs; format: functional; settings: CDC 317, 48 h
[12] = test system: Candida albicans; assay: Antifungal activity against Candida albicans ATCC 90028 after 24 hrs; format: functional; settings: ATCC 90028, 24 h
[13] = test system: Fusarium oxysporum; assay: Antifungal activity against Fusarium oxysporum ATCC 48112 after 48 hrs; format: functional; settings: ATCC 48112, 48 h
[14] = test system: Vero; assay: Cytotoxicity against african green monkey Vero cells after 48 hrs by MTT assay; format: cell-based; settings: Chlorocebus sabaeus
[15] = test system: Candida tropicalis; assay: Antifungal activity against Candida tropicalis ATCC 200956 after 24 hrs; format: functional; settings: ATCC 200956, 24 h
[16] = Selectivity index, ratio of IC50 for african green monkey Vero cells to IC50 for Trichophyton mentagrophytes ATCC 24198; format: toxicity, cell-based; settings: read-out: Ratio IC50
[17] = test system: Clavispora lusitaniae; assay: Antifungal activity against Candida lusitaniae ATCC 200951 after 24 hrs; format: functional; settings: ATCC 200951, 24 h
[18] = test system: Candida parapsilosis; assay: Antifungal activity against Candida parapsilosis ATCC 22019 at > MIC up to 24 hrs by time kill study; format: functional, organism-based
[19] = Selectivity index, ratio of IC50 for african green monkey Vero cells to IC50 for Trichophyton rubrum ATCC 28188; format: toxicity, cell-based; settings: read-out: Ratio IC50

Row | Compound | MIC90 [1] [µg/mL] | MIC90 [3] [µg/mL] | MIC90 [4] [µg/mL] | MIC90 [5] [µg/mL] | MIC90 [6] [µg/mL] | MIC90 [7] [µg/mL] | MIC90 [8] [µg/mL] | MIC90 [9] [µg/mL] | MIC90 [10] [µg/mL] | MIC90 [11] [µg/mL] | MIC90 [12] [µg/mL] | MIC90 [13] [µg/mL] | MIC90 [15] [µg/mL] | MIC90 [17] [µg/mL] | selectivity ratio [2] | IC50 [14] [µg/mL] | selectivity ratio [16] | Activity [18] | selectivity ratio [19]
1 | CC1(C)CCCc2cc3c(cc21)C(=O)C=CC3=O | 4.8 (≈ 20 µM) | 4 (≈ 16.6 µM) | 4 (≈ 16.6 µM) | 1.3 (≈ 5.41 µM) | 12.7 (≈ 52.9 µM) | > 32 | 18 (≈ 74.9 µM) | > 32 | > 32 | > 32 | 22.6 (≈ 94 µM) | > 32 | 5 (≈ 20.8 µM) | 5 (≈ 20.8 µM) | 2.2 | 8.6 (≈ 35.8 µM) | 6.6 | – | –
2 | COc1ccc(SC2=CC(=O)c3ccc(CCCC(C)C)cc3C2=O)cc1 | > 32 | > 32 | > 32 | > 32 | > 32 | > 32 | > 32 | > 32 | > 32 | > 32 | > 32 | > 32 | > 32 | > 32 | – | – | – | – | –
3 | CCC(C)n1ncn(-c2ccc(N3CCN(c4ccc(OCC5COC(Cn6cncn6)(c6ccc(Cl)cc6Cl)O5)cc4)CC3)cc2)c1=O (stereo not drawn) [ITRACONAZOLE] | 0.25 (≈ 0.354 µM) | 0.5 (≈ 0.709 µM) | – | – | – | 0.2 (≈ 0.283 µM) | – | – | 0.1 (≈ 0.142 µM) | – | – | – | – | – | > 100 | > 50 | – | Active | –
4 | Cc1cc(C)c2c3c(oc2c1)C(=O)c1cc(CCCC(C)C)ccc1C3=O | > 32 | > 32 | > 32 | > 32 | > 32 | > 32 | > 32 | > 32 | > 32 | > 32 | > 32 | > 32 | > 32 | > 32 | – | 35.4 (≈ 98.2 µM) | – | – | –
5 | CC(C)CCCc1ccc2c(c1)C(=O)C(Br)=C(Br)C2=O | > 32 | > 32 | 32 (≈ 80 µM) | > 32 | > 32 | > 32 | > 32 | > 32 | 32 (≈ 80 µM) | > 32 | > 32 | > 32 | > 32 | > 32 | – | ≤ 25 | – | – | –
6 | COc1cc(NC2=C(Cl)C(=O)c3cc4c(cc3C2=O)C(C)(C)CCC4)cc(OC)c1OC | > 32 | > 32 | > 32 | > 32 | > 32 | > 32 | > 32 | > 32 | > 32 | > 32 | > 32 | > 32 | > 32 | > 32 | – | ≤ 25 | – | – | –
7 | CCNC1=CC(=O)c2cc3c(cc2C1=O)C(C)(C)CCC3 | > 32 | > 32 | 3.2 (≈ 11.3 µM) | 5 (≈ 17.6 µM) | > 32 | > 32 | > 32 | > 32 | > 32 | > 32 | > 32 | > 32 | > 32 | > 32 | – | 35.6 (≈ 126 µM) | – | – | 11.1
8 | CC(C)=CCCc1ccc2c(c1)C(=O)C=CC2=O | > 32 | > 32 | > 32 | > 32 | > 32 | > 32 | > 32 | > 32 | > 32 | > 32 | > 32 | > 32 | > 32 | > 32 | – | 109 (≈ 454 µM) | – | – | –
9 | CCOC1=C(OCC)C(=O)c2cc3c(cc2C1=O)CCCC3(C)C | > 32 | > 32 | > 32 | > 32 | > 32 | > 32 | > 32 | > 32 | > 32 | > 32 | > 32 | > 32 | > 32 | > 32 | – | ≤ 25 | – | – | –

Second part, led by results:

Row | MIC90 [1] [µg/mL] | MIC90 [3] [µg/mL] | MIC90 [4] [µg/mL] | MIC90 [5] [µg/mL] | MIC90 [6] [µg/mL] | MIC90 [7] [µg/mL] | MIC90 [8] [µg/mL] | MIC90 [9] [µg/mL] | MIC90 [10] [µg/mL] | MIC90 [11] [µg/mL] | MIC90 [12] [µg/mL] | MIC90 [13] [µg/mL] | MIC90 [15] [µg/mL] | MIC90 [17] [µg/mL] | Compound | selectivity ratio [2] | IC50 [14] [µg/mL] | selectivity ratio [16] | Activity [18] | selectivity ratio [19]
10 | > 32 | > 32 | > 32 | > 32 | > 32 | > 32 | > 32 | > 32 | > 32 | > 32 | > 32 | > 32 | > 32 | > 32 | Cc1ccc2[nH]c3c(c2c1)C(=O)c1ccc(CCCC(C)C)cc1C3=O | – | 55.2 (≈ 160 µM) | – | – | –
11 | > 32 | > 32 | 22.6 (≈ 59.5 µM) | > 32 | > 32 | > 32 | > 32 | > 32 | > 32 | > 32 | > 32 | > 32 | > 32 | > 32 | CC(C)=CCCc1ccc2c(c1)C(=O)C(Cl)=C(NCc1ccccc1)C2=O | – | 55.9 (≈ 147 µM) | – | – | –
12 | – | – | 0.08 (≈ 0.275 µM) | 0.03 (≈ 0.103 µM) | – | – | – | – | – | – | – | – | – | – | CN(C/C=C/C#CC(C)(C)C)Cc1cccc2ccccc12 [TERBINAFINE] | – | 30.9 (≈ 106 µM) | – | – | 386
13 | > 32 | > 32 | > 32 | > 32 | > 32 | > 32 | > 32 | > 32 | > 32 | > 32 | > 32 | > 32 | > 32 | > 32 | COc1ccc(NC2=C(Br)C(=O)c3cc(CCCC(C)C)ccc3C2=O)cc1 | – | 58.5 (≈ 132 µM) | – | – | –
14 | > 32 | > 32 | > 32 | > 32 | > 32 | > 32 | > 32 | > 32 | > 32 | > 32 | > 32 | > 32 | > 32 | > 32 | Cc1c2c(nc3ccccc13)C(=O)c1cc(CCCC(C)C)ccc1C2=O | – | 115 (≈ 322 µM) | – | – | –
